Publication PMC8772704, “Quantification of Fosfomycin in Combination with Nine Antibiotics in Human Plasma and Cation-Adjusted Mueller-Hinton II Broth via LCMS” (Antibiotics, 2022)

Columns and labels:
[1] = Long-term storage stability of antibiotics in combination with fosfomycin spiked in plasma/CAMHB (−30 °C, −80 °C); type: physicochemical; settings: for Mean accuracy (%), Table S15 / Mean accuracy (%), Table S17 / Mean accuracy (%), Table S16 / Mean accuracy (%), Table S18: CAMHB; for Mean accuracy (%), Table S15 / Mean accuracy (%), Table S17 / Mean accuracy (%), Table S16 / Mean accuracy (%), Table S18 / Mean accuracy (%), Table S11 / Mean accuracy (%), Table S13 / Mean accuracy (%), Table S12 / Mean accuracy (%), Table S14: combination with fosfomycin; for Mean accuracy (%), Table S15 / Mean accuracy (%), Table S11: 2 weeks at -30 °C; for Mean accuracy (%), Table S17 / Mean accuracy (%), Table S13: 2 weeks at -80 °C; for Mean accuracy (%), Table S16 / Mean accuracy (%), Table S12: 4 weeks at -30 °C; for Mean accuracy (%), Table S18 / Mean accuracy (%), Table S14: 4 weeks at -80 °C
Description: (§1) The stability of fosfomycin in combination with other antibiotics in plasma/CAMHB was evaluated under various operational conditions. Spiked plasma/CAMHB samples were evaluated at 7 h and 15 h in the autosampler at 4 °C. Long-term stability was evaluated up to 4 weeks of antibiotic-spiked plasma/CAMHB samples at LQC, MQC, and HQC concentrations stored at −30 °C and −80 °C.

[2] = 32-day stability of stock solutions stored at −80 °C; type: physicochemical; settings: stock solution stored at -80 °C; peak area Day 32 vs Day 1
Description: Stability of stock solutions
All stock solutions of antibiotics and their corresponding stable-isotope variants were measured prior to cold storage at -80 °C and tested at 32 days later.
Stability was determined by comparing the peak area of each drug between its Day 1 and Day 32 measurement. Acceptable criteria for stability was met if the […]

[3] = Autosampler stability at 4 °C of extracted antibiotic-spiked plasma/CAMHB samples; settings: for Mean accuracy (%), Table S8 / Mean accuracy (%), Table S10: CAMHB extracted samples; for Mean accuracy (%), Table S8 / Mean accuracy (%), Table S7: 7 h autosampler 4 °C; for Mean accuracy (%), Table S10 / Mean accuracy (%), Table S9: 15 h autosampler 4 °C; for Mean accuracy (%), Table S7 / Mean accuracy (%), Table S9: plasma extracted samples
Description: as §1

[4] = HQC: nominal mg/L CAZ 150, FEP 200, PIP 250, ATM 300, MEM 200, DOR 175, LVX 30, CEFT 250, TZB 87.5, TGC 20, AVI 30, FOF 1000
[5] = LQC: nominal 1 mg/L (levofloxacin, avibactam 0.5; fosfomycin 10)
[6] = MQC: nominal mg/L CAZ 75, FEP 100, PIP 150, ATM 150, MEM 100, DOR 87.5, LVX 15, CEFT 125, TZB 43.75, TGC 10, AVI 15, FOF 500

Cn1c(N)c(NC(=O)NCCN)c[n+]1CC1=C(C(=O)O)N2C(=O)[C@@H](NC(=O)/C(=N\OC(C)(C)C(=O)[O-])c3nsc(N)n3)[C@H]2SC1 [Ceftolozane, ceftolozane]
Mean accuracy (%), Table S15 ([1]; HQC (nominal as E15)): 93.2% | Mean accuracy (%), Table S15 ([1]; LQC (nominal as E13)): 91.3% | Mean accuracy (%), Table S15 ([1]; MQC (nominal as E14)): 94.7% | Mean accuracy (%), Table S17 ([1]; HQC (nominal as E15)): 94.1% | Mean accuracy (%), Table S17 ([1]; LQC (nominal as E13)): 91.4% | Mean accuracy (%), Table S17 ([1]; MQC (nominal as E14)): 94.3% | Mean accuracy (%), Table S16 ([1]; HQC (nominal as E15)): 90.8% | Mean accuracy (%), Table S16 ([1]; LQC (nominal as E13)): 86.1% | Mean accuracy (%), Table S16 ([1]; MQC (nominal as E14)): 90.4% | Mean accuracy (%), Table S18 ([1]; HQC (nominal as E15)): 93.9% | Mean accuracy (%), Table S18 ([1]; LQC (nominal as E13)): 87.5% | Mean accuracy (%), Table S18 ([1]; MQC (nominal as E14)): 96.2% | Mean accuracy (%), Table S11 ([1]; plasma, HQC (nominal as E15)): 86.5% | Mean accuracy (%), Table S11 ([1]; plasma, LQC (nominal as E13)): 86.9% | Mean accuracy (%), Table S11 ([1]; plasma, MQC (nominal as E14)): 86.4% | Mean accuracy (%), Table S13 ([1]; plasma, HQC (nominal as E15)): 86.3% | Mean accuracy (%), Table S13 ([1]; plasma, LQC (nominal as E13)): 91.1% | Mean accuracy (%), Table S13 ([1]; plasma, MQC (nominal as E14)): 87.7% | Mean accuracy (%), Table S12 ([1]; plasma, HQC (nominal as E15)): 99.3% | Mean accuracy (%), Table S12 ([1]; plasma, LQC (nominal as E13)): 99.0% | Mean accuracy (%), Table S12 ([1]; plasma, MQC (nominal as E14)): 98.6% | Mean accuracy (%), Table S14 ([1]; plasma, HQC (nominal as E15)): 100.8% | Mean accuracy (%), Table S14 ([1]; plasma, LQC (nominal as E13)): 89.3% | Mean accuracy (%), Table S14 ([1]; plasma, MQC (nominal as E14)): 98.0% | 32 Day Stability (%) [2]: 107.69% | Mean accuracy (%), Table S8 ([3]; HQC (nominal as E15)): 113.3% | Mean accuracy (%), Table S8 ([3]; LQC (nominal as E13)): 106.4% | Mean accuracy (%), Table S8 ([3]; MQC (nominal as E14)): 109.8% | Mean accuracy (%), Table S10 ([3]; HQC (nominal as E15)): 112.0% | Mean accuracy (%), Table S10 ([3]; LQC (nominal as E13)): 107.2% | Mean accuracy (%), Table S10 ([3]; MQC (nominal as E14)): 111.3% | Mean accuracy (%), Table S7 [3, 4]: 105.1% | Mean accuracy (%), Table S7 [3, 5]: 106.0% | Mean accuracy (%), Table S7 [3, 6]: 97.2% | Mean accuracy (%), Table S9 ([3]; HQC (nominal as E15)): 101.0% | Mean accuracy (%), Table S9 ([3]; LQC (nominal as E13)): 97.5% | Mean accuracy (%), Table S9 ([3]; MQC (nominal as E14)): 90.0%

CCN1CCN(C(=O)N[C@@H](C(=O)N[C@@H]2C(=O)N3[C@@H]2SC(C)(C)[C@@H]3C(=O)O)c2ccccc2)C(=O)C1=O [Piperacillin, piperacillin]
Stability verdict (within ±15% of nominal) ([1]; CAMHB samples stored at −30 °C, 4 weeks): instability | Mean accuracy (%), Table S15 ([1]; HQC (nominal as E15)): 89.0% | Mean accuracy (%), Table S15 ([1]; LQC (nominal as E13)): 106.0% | Mean accuracy (%), Table S15 ([1]; MQC (nominal as E14)): 89.5% | Mean accuracy (%), Table S17 ([1]; HQC (nominal as E15)): 89.6% | Mean accuracy (%), Table S17 ([1]; LQC (nominal as E13)): 111.6% | Mean accuracy (%), Table S17 ([1]; MQC (nominal as E14)): 92.6% | Mean accuracy (%), Table S16 ([1]; HQC (nominal as E15)): 69.6% | Mean accuracy (%), Table S16 ([1]; LQC (nominal as E13)): 90.6% | Mean accuracy (%), Table S16 ([1]; MQC (nominal as E14)): 67.5% | Mean accuracy (%), Table S18 ([1]; HQC (nominal as E15)): 87.6% | Mean accuracy (%), Table S18 ([1]; LQC (nominal as E13)): 109.4% | Mean accuracy (%), Table S18 ([1]; MQC (nominal as E14)): 90.6% | Stability data ([1]; plasma, 2-week and 4-week intervals): 86–88% | Mean accuracy (%), Table S11 ([1]; plasma, HQC (nominal as E15)): 88.5% | Mean accuracy (%), Table S11 ([1]; plasma, LQC (nominal as E13)): 112.6% | Mean accuracy (%), Table S11 ([1]; plasma, MQC (nominal as E14)): 92.7% | Mean accuracy (%), Table S13 ([1]; plasma, HQC (nominal as E15)): 88.6% | Mean accuracy (%), Table S13 ([1]; plasma, LQC (nominal as E13)): 109.5% | Mean accuracy (%), Table S13 ([1]; plasma, MQC (nominal as E14)): 93.0% | Mean accuracy (%), Table S12 ([1]; plasma, LQC (nominal as E13)): 106.0% | Mean accuracy (%), Table S14 ([1]; plasma, LQC (nominal as E13)): 111.6% | 32 Day Stability (%) [2]: 100.48% | Mean accuracy (%), Table S8 ([3]; HQC (nominal as E15)): 89.6% | Mean accuracy (%), Table S8 ([3]; LQC (nominal as E13)): 113.7% | Mean accuracy (%), Table S8 ([3]; MQC (nominal as E14)): 86.7% | Mean accuracy (%), Table S10 ([3]; HQC (nominal as E15)): 90.6% | Mean accuracy (%), Table S10 ([3]; LQC (nominal as E13)): 112.7% | Mean accuracy (%), Table S10 ([3]; MQC (nominal as E14)): 87.6% | Mean accuracy (%), Table S7 [3, 4]: 87.5% | Mean accuracy (%), Table S7 [3, 5]: 109.5% | Mean accuracy (%), Table S7 [3, 6]: 84.0% | Mean accuracy (%), Table S9 ([3]; HQC (nominal as E15)): 89.6% | Mean accuracy (%), Table S9 ([3]; LQC (nominal as E13)): 109.9% | Mean accuracy (%), Table S9 ([3]; MQC (nominal as E14)): 86.8%
